The source made the active and inactive calls.
Legend:
[1] = target: T1, High affinity choline transporter 1 (Homo sapiens, UniProt Q9GZV3); assay: human choline transporter blockers, potency – cell-based, 5-point CRC, membrane potential dye, dose response (AID 504840); type: functional
T1 sequence (Q9GZV3 whole entry): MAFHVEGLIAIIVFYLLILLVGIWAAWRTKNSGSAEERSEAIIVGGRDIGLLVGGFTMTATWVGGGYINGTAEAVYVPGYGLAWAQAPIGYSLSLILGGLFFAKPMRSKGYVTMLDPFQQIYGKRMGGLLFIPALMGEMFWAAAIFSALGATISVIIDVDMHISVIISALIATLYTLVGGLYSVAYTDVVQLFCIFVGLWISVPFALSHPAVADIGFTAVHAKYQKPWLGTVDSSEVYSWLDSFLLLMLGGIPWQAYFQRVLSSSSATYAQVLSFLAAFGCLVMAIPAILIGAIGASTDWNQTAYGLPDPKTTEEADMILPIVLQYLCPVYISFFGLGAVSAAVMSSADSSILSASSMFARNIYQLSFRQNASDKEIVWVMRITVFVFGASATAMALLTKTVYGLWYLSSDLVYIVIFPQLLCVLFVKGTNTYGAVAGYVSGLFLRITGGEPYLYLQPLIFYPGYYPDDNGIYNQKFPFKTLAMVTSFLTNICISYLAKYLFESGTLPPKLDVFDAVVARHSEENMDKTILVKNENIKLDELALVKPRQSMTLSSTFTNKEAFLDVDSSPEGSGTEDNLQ

[2] = target: T1, High affinity choline transporter 1; assay: human choline transporter blockers, potency – cell-based, 10-point CRC, membrane potential dye, dose response (AID 588401); type: functional;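 note: membrane potential dye fluorescence of choline-evoked depolarization via CHT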
[3] = viability loss in Vero cells – cell-based, purified and synthesized samples, set 8, cytotoxicity control for M. tuberculosis inhibitor project (AID 602431); type: functional; details: Mycobacterium tuberculosis
[4] = target: Tyrosine-protein kinase receptor TYRO3 (Homo sapiens, UniProt Q06418); type: functional;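 note: TYRO3 value obtained as one member of a kinome-wide profiling panel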
[5] = target: Cyclin-dependent kinase 8 (Homo sapiens, UniProt P49336); assay: Navigating the Kinome. Panel member name: CDK8; type: functional
[6] = target: T2, Apoptotic protease-activating factor 1 (Homo sapiens, UniProt O14727); assay: SAR analysis of small molecule Activators of Apaf-1 in a Fluorescent assay.; type: functional; details: read-out: EC50_Mean;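 note: caspase-3 cleavage of fluorogenic Rh110 DEVD substrate downstream of apoptosome activation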
T2 sequence (O14727 whole entry): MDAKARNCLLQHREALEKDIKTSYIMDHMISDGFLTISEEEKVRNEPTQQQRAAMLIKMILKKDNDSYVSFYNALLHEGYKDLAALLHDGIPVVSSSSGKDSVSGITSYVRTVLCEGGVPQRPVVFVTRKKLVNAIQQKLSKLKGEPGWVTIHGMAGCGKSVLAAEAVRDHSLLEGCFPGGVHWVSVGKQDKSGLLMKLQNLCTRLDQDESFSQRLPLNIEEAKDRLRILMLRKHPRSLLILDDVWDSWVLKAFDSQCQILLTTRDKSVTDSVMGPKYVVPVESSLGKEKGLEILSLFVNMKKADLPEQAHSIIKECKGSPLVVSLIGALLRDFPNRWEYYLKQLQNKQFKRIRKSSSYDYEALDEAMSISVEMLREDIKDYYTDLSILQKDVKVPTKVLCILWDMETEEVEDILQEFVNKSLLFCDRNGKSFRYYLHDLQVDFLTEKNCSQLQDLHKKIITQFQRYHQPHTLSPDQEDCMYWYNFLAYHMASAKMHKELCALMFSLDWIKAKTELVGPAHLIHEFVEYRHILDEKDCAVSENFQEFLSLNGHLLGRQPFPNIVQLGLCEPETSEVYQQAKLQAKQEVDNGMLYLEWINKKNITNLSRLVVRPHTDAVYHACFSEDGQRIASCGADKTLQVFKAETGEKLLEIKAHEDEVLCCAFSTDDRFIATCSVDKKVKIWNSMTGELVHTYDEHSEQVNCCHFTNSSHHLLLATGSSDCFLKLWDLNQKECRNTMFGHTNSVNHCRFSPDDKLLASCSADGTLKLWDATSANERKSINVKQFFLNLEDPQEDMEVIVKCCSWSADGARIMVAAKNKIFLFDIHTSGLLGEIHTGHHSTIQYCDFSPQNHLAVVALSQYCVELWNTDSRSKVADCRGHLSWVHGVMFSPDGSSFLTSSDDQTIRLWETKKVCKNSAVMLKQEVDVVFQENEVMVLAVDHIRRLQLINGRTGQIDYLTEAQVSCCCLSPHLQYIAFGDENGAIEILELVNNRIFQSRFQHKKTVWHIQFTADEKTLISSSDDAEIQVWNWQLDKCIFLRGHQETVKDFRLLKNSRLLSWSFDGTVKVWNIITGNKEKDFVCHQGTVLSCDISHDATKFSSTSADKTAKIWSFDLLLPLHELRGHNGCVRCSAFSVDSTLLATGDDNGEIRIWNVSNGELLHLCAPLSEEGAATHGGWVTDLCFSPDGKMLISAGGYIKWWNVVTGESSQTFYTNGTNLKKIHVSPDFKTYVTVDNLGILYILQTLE

[7] = luciferase reporter signal suppression in cells – H4 neuroglioma cells, luminescence, dose response (AID 1990); type: functional, cell-based
[8] = luciferase reporter signal reduction – luminescence, H4-C neuroglioblastoma cells, dose response (AID 2458); type: functional, cell-based;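 note: H4 neuroglioblastoma cells stably carrying a luciferase reporter gene fusion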
cells = type: functional, cell-based
[9] = alpha-synuclein stem-loop luciferase translation blockers – H4 neuroglioma cells, luminescence, confirmation (AID 1988); type: functional, cell-based
[10] = HPDE-C7 pancreatic duct cell viability loss – fluorescence, HTS (AID 430); type: functional, cell-based; details: Homo sapiens
[11] = viability loss of HPDE-C7K cells – cell-based, fluorescence, HTS, primary screen (AID 431); type: functional; details: Homo sapiens
[12] = alpha-synuclein stem-loop translation blockers – luminescence, H4 neuroglioblastoma cells, dose confirmation, confirmation (AID 2454); type: functional, cell-based;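 note: H4 neuroglioblastoma cells carrying an alpha-synuclein 5'UTR luciferase reporter; potency for inhibition of the luciferase signal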
[13] = target: T3, RNA-binding protein pos-1 (Caenorhabditis elegans, UniProt G5EF15); assay: disruptors of C. elegans POS-1 RNA interaction – biochemical, fluorescence polarization, dose response (AID 1964);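 note: purified POS-1 fused to maltose binding protein made in E. coli; potency of compounds blocking POS-1 binding to fluorescent RNA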
T3 sequence (G5EF15 whole entry): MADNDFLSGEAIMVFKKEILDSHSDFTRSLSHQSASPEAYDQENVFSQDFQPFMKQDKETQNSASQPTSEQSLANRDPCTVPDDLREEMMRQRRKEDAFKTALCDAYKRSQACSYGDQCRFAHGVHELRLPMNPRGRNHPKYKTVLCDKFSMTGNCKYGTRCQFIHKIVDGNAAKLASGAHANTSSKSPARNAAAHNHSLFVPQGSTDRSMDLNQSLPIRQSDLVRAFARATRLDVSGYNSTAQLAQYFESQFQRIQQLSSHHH

[14] = target: T4, Zinc finger protein mex-5 (Caenorhabditis elegans, UniProt Q9XUB2); assay: potency of MEX-5 RNA-binding blockers – biochemical, C. elegans, fluorescence polarization, dose response (AID 1960)
T4 sequence (Q9XUB2 whole entry): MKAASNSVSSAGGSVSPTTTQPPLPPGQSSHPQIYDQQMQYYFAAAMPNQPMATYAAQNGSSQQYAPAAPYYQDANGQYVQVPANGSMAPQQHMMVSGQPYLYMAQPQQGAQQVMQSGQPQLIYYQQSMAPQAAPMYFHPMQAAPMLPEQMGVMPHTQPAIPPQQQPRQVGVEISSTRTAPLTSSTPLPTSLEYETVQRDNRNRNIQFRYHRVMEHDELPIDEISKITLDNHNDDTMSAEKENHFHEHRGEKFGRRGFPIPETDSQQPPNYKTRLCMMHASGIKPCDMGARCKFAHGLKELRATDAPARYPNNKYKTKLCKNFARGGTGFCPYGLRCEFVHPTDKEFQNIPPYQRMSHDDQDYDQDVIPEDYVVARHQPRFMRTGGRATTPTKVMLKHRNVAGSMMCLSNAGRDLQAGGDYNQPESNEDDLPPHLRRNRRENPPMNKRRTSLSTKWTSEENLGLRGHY

[15] = target: T5, Mannose-6-phosphate isomerase (Homo sapiens, UniProt P34949); assay: MPI inhibition at elevated mannose 6-phosphate – biochemical, fluorescence intensity, high mannose 6-phosphate, primary screen (AID 1220)
T5 sequence (P34949 whole entry): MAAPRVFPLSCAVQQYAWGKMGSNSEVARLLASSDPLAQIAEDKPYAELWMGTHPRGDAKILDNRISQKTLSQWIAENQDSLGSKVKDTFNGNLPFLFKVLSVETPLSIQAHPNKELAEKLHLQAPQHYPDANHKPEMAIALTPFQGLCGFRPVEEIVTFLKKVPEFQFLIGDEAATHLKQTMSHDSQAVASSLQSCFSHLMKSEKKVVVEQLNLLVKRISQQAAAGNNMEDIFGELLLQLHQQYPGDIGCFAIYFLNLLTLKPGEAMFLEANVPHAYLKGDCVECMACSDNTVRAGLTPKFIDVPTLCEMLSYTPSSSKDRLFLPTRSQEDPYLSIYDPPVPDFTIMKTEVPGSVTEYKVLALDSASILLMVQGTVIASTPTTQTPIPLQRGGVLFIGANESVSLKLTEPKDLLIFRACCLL

[16] = target: Protein disulfide-isomerase (Homo sapiens, UniProt P07237); assay: inhibition of PDI-driven insulin aggregation – biochemical, turbidity, absorbance, cherry-picked samples, dose response (AID 602350); type: functional
[17] = target: T6, RNA-editing ligase 1, mitochondrial (Trypanosoma brucei brucei, UniProt P86926); assay: inhibition of trypanosome RNA editing ligase – biochemical, fluorescence, Trypanosoma brucei, dose response (AID 1117295); type: functional
T6 sequence (P86926 whole entry): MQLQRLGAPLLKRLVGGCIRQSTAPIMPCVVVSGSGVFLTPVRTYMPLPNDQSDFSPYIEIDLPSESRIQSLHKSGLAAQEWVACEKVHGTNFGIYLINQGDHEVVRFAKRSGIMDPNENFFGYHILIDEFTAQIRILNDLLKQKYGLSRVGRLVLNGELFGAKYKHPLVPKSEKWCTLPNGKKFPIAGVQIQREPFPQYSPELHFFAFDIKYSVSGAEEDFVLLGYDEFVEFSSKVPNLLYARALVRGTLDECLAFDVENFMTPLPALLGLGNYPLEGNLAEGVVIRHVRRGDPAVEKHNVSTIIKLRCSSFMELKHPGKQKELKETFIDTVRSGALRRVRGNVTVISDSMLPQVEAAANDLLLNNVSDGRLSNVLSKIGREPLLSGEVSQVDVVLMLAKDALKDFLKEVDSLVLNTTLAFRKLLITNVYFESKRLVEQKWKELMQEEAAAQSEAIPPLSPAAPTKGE

Sequence of Cyclin-dependent kinase 8 (P49336 whole entry): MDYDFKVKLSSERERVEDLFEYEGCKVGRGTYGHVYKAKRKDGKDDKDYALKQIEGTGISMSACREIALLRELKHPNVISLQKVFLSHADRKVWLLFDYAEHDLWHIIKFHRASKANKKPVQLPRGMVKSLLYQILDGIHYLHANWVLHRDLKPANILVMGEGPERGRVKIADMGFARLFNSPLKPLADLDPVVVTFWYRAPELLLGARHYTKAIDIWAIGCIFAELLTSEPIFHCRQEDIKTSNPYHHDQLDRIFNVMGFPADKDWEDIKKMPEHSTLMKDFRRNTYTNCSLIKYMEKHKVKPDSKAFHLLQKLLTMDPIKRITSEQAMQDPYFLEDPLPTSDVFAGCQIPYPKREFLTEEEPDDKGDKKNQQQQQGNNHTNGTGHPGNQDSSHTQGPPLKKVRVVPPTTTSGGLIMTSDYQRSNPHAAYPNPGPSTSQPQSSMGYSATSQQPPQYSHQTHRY
Sequence of Tyrosine-protein kinase receptor TYRO3 (Q06418 whole entry): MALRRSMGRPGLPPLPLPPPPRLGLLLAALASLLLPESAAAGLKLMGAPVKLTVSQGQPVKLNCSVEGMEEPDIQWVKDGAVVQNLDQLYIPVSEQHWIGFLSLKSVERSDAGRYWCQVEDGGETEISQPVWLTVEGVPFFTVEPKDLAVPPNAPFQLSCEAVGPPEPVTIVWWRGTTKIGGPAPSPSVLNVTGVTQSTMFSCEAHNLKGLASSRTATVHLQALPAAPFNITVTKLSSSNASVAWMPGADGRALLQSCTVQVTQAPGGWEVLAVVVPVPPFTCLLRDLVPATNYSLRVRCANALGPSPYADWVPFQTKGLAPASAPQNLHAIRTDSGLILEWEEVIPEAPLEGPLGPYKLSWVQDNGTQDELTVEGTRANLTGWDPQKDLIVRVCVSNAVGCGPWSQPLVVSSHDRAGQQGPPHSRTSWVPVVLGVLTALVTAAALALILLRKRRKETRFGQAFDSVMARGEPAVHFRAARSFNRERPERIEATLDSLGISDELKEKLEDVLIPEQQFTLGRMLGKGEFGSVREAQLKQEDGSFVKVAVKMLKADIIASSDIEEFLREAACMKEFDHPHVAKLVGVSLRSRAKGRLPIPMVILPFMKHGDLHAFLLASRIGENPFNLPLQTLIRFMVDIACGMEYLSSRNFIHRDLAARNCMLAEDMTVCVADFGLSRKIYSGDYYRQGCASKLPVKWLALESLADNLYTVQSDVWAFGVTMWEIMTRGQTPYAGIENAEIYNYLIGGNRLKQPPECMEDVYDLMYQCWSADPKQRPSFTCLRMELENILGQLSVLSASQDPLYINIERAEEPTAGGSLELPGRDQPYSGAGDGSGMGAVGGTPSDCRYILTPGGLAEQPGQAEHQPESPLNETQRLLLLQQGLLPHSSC
Sequence of Protein disulfide-isomerase (P07237 whole entry): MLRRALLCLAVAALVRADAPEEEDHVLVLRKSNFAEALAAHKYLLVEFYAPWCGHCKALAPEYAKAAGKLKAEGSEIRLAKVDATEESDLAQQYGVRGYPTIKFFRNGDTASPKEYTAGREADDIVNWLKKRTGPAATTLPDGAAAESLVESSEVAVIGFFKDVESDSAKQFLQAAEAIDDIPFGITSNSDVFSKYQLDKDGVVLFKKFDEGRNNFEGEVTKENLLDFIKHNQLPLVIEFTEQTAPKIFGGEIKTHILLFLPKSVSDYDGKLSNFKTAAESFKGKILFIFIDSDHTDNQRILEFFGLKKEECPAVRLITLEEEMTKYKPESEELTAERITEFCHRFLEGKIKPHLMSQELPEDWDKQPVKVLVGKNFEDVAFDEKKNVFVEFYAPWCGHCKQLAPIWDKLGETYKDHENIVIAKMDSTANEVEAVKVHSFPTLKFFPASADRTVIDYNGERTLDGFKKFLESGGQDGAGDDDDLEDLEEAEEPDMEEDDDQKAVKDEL

Which IC50 [1] does the source give for `CCCCN(CCCC)CCNC(=O)c1cn(CC)c2ccc(S(=O)(=O)N3CCc4ccccc4C3)cc2c1=O` here?
Its IC50 is 4070 nM (active).

What about the IC50 [2] of the same compound?
The IC50 was 4280 nM (active).

With `O=C(c1ccc(CNc2c(N3CCCC3)c(=O)c2=O)cc1)N1CCC(c2ccccc2)CC1` as the compound, how does the CC50 [3] read?
Its CC50 is > 100000 nM (inconclusive).

Which Ki [4] does the source give for `NC(=O)CCN1CCN(C2Cc3cc(Cl)ccc3Sc3cc(F)ccc32)CC1` (stereo not given) here?
The Ki was 1580 nM (active).

And the Ki [5]?
Its Ki is 1580 nM (active).

With `Cc1ccc(N2C(=O)CC3(CC(c4ccccc4Cl)=NO3)C2=O)cc1` (stereo not given) as the compound, how does the EC50 [6] read?
The EC50 was > 100000 nM (inactive).

With `COc1ccc(C2=Nn3c(nnc3-c3ccccc3OC)SC2)cc1OC` as the compound, how does the EC50 [7] read?
The EC50 was < 100 nM (active).

And the EC50 [8]?
Its EC50 is 624 nM (active).

What about the EC50 (cells) of the same compound?
Its EC50 is 494 nM (active).

And the EC50 [9]?
The EC50 was < 100 nM (active).

What about the EC50 [10] of the same compound?
The EC50 was 700 nM (active).

What about the EC50 [11] of the same compound?
Its EC50 is 300 nM (active).

And the EC50 [12]?
The EC50 was 551 nM (active).

And the IC50 [1]?
Its IC50 is 1150 nM (active).

And the IC50 [2]?
The IC50 was 4220 nM (active).

What does the source list for `C[C@@H]1O[C@@H](Oc2c(-c3cc(O)c(O)c(O)c3)oc3cc(O)cc(O)c3c2=O)[C@H](O)[C@H](O)[C@H]1O`?
EC50 [13]: 15800 nM (active); EC50 [14]: 14000 nM (active); IC50 [15]: 31000 nM (active); AC50 [16]: 9800 nM (active); IC50 [17]: 51400 nM (inactive)

— ChEMBL document CHEMBL1201862, “PubChem BioAssay data set” (2004)
